Test results published in US20230183224A1, “BEZOXAZINE DERIVATIVES USEFUL AS MONOACYLGLYCEROL LIPASE INHIBITORS” (Hoffmann-La Roche Inc., priority 2017, published 2023).

Molecular target: T1, MAGL (recombinant wild-type) (Homo sapiens, UniProt Q99685)
T1 sequence (Q99685 1-303): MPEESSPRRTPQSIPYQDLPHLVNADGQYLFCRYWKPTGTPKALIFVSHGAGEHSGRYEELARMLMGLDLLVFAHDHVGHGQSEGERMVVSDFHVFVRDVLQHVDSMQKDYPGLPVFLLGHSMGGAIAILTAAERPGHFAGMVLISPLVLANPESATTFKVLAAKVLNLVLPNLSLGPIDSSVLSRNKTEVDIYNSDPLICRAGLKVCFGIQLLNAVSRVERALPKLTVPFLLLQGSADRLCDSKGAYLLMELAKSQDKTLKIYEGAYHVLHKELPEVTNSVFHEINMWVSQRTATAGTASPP
Experiment: MAGL inhibitory activity, hydrolysis of 4-nitrophenylacetate to 4-nitrophenol (absorbance at 405 nm)
Format: biochemical
Conditions: 1 nM MAGL, 300 μM 4-nitrophenylacetate, 15 min preincubation at RT, slope of absorbance at 405 nm between 5 and 80 min
Method: Compounds were profiled for MAGL inhibitory activity by measuring the enzymatic activity of MAGL by following the hydrolysis of 4-nitorphenylacetate resulting in 4-nitrophenol, which absorbs at 405-412 nm (G. G. Muccioli, G. Labar, D. M. Lambert, Chem. Bio. Chem. 2008, 9, 2704-2710).
The assay was carried out in 384 well assay plates (black with clear bottom, non-binding surface treated, Corning Ref. 3655) in a total volume of 40 μL. Compound dilutions were made in 100% DMSO (VWR Chemicals 23500.297) in a polypropylene plate in 3-fold dilution steps to give a final concentration range in the assay from 25 μM to 1.7 nM. 1 μL compound dilutions (100% DMSO) were added to 19 μL MAGL (recombinant wild-type) in assay buffer (50 mM TRIS (GIBCO, 15567-027), 1 mM EDTA (Fluka, 03690-100 ml)). The plate was shaked for 1 min at 2000 rpm (Variomag Teleshake) and then incubated for 15 min at RT. To start the reaction, 20 μL 4-Nitrophenlyacetate (Sigma N-8130) in assay buffer with 6% EtOH was added. The final concentrations in the assay were 1 nM MAGL and 300 μM 4-Nitrophenylacetate. After shaking (1 m, 2000 rpm) and 5 min incubation at RT, the absorbance at 405 nm was measured for a first time (Molecular Devices, SpectraMax Paradigm). A second measurement was then done after incubation for 80 min at RT. From the two measurements, the slope was calculated by subtracting the first from the second measurement.

IC50: 3.72 µM
SMILES: O=C1COc2ccc(C(=O)N3CCN(Cc4ccccc4)CC3)cc2N1 [Example 2, 6-(4-benzylpiperazine-1-carbonyl)-4H-1,4-benzoxazin-3-one]
